Experimental data published in PMC10838953.

Legend:
CSNK1G1 = CSNK1G1 (Homo sapiens, UniProt Q9HCP0); experiment: biochemical; details: read-out: %Ctrl @ 2000nM
ABL2 = ABL2 (Homo sapiens, UniProt P42684); experiment: biochemical; details: read-out: %Ctrl @ 2000nM
S6K1 = S6K1 (Homo sapiens, UniProt P23443); experiment: biochemical; details: read-out: %Ctrl @ 2000nM
MAK = MAK (Homo sapiens, UniProt P20794); experiment: biochemical; details: read-out: %Ctrl @ 2000nM
SGK2 = SGK2 (Homo sapiens, UniProt Q9HBY8); experiment: biochemical; details: read-out: %Ctrl @ 2000nM
PRKCH = PRKCH (Homo sapiens, UniProt P24723); experiment: biochemical; details: read-out: %Ctrl @ 2000nM
AURKA = AURKA (Homo sapiens, UniProt O14965); experiment: biochemical; details: read-out: %Ctrl @ 2000nM
HIPK2 = HIPK2 (Homo sapiens, UniProt Q9H2X6); experiment: biochemical; details: read-out: %Ctrl @ 2000nM
RET(V804L) = RET(V804L) (Homo sapiens, UniProt P07949, V804L); experiment: biochemical; details: read-out: %Ctrl @ 2000nM
RET(V804L), sequence (P07949 29-1114 V804L): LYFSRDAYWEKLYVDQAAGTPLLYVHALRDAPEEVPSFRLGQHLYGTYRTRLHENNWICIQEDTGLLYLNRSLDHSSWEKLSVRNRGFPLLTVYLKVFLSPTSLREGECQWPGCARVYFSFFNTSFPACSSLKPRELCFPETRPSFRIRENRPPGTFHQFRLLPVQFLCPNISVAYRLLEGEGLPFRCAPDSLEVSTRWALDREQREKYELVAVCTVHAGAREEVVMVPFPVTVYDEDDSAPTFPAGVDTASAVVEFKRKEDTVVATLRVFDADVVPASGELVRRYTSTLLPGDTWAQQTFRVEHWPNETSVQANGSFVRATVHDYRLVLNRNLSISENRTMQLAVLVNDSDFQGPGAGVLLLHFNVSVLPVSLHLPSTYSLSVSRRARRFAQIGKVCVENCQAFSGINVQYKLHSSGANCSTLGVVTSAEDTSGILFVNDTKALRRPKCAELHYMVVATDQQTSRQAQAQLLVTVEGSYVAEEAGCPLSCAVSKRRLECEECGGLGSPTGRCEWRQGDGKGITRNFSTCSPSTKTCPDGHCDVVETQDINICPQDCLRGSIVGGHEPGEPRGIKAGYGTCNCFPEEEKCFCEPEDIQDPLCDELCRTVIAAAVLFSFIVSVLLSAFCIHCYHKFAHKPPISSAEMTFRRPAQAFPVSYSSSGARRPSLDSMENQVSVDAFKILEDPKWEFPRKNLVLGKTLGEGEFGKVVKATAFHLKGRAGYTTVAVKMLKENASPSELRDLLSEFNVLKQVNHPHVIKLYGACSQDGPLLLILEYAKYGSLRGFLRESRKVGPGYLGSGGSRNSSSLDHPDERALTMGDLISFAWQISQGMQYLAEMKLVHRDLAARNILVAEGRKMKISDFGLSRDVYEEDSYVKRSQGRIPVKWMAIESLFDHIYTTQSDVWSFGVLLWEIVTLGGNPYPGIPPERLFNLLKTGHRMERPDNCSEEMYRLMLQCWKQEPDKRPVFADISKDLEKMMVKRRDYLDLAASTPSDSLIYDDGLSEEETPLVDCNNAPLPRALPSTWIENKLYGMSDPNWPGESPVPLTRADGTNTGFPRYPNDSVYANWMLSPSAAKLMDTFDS

ALK(L1196M) = ALK(L1196M) (Homo sapiens, UniProt Q9UM73, L1196M); experiment: biochemical; details: read-out: %Ctrl @ 2000nM
[1] = target: RSK3(Kin.Dom.2-C-terminal) (Homo sapiens, UniProt Q15349); experiment: biochemical; details: read-out: %Ctrl @ 2000nM
RSK3(Kin.Dom.2-C-terminal), sequence (Q15349 389-733 limits assumed): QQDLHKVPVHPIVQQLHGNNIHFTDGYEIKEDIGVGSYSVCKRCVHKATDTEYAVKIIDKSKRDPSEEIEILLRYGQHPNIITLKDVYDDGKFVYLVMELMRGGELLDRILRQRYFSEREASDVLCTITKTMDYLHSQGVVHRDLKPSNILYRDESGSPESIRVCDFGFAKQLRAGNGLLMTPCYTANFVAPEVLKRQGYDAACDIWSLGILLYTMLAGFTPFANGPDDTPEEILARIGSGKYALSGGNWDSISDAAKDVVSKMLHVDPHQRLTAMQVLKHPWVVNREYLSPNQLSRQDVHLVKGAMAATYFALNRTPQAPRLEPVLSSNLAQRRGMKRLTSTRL

YANK3 = YANK3 (Homo sapiens, UniProt Q86UX6); experiment: biochemical; details: read-out: %Ctrl @ 2000nM
TNIK = TNIK (Homo sapiens, UniProt Q9UKE5); experiment: biochemical; details: read-out: %Ctrl @ 2000nM
CSNK1G3 = CSNK1G3 (Homo sapiens, UniProt Q9Y6M4); experiment: biochemical; details: read-out: %Ctrl @ 2000nM
CDK11 = CDK11 (Homo sapiens, UniProt Q9BWU1); experiment: biochemical; details: read-out: %Ctrl @ 2000nM
PDGFRA = PDGFRA (Homo sapiens, UniProt P16234); experiment: biochemical; details: read-out: %Ctrl @ 2000nM
LIMK2 = LIMK2 (Homo sapiens, UniProt P53671); experiment: biochemical; details: read-out: %Ctrl @ 2000nM
BMPR1A = BMPR1A (Homo sapiens, UniProt P36894); experiment: biochemical; details: read-out: %Ctrl @ 2000nM
BMPR1A, sequence (P36894 24-532): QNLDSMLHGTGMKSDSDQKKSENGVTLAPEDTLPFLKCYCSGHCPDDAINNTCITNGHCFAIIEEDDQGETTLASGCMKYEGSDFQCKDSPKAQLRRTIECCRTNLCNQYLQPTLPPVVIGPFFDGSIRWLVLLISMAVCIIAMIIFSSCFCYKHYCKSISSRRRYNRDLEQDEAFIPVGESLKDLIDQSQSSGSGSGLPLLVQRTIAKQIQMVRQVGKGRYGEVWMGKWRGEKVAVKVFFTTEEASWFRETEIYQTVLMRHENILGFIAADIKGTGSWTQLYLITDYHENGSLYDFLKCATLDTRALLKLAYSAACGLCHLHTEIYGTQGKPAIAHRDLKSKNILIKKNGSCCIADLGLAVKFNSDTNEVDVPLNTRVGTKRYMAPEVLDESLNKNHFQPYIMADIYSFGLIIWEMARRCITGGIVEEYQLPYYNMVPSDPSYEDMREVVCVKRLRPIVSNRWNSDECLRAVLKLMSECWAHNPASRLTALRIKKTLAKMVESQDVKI

TNNI3K = TNNI3K (Homo sapiens, UniProt Q59H18); experiment: biochemical; details: read-out: %Ctrl @ 2000nM
TNNI3K, sequence (Q59H18 whole entry): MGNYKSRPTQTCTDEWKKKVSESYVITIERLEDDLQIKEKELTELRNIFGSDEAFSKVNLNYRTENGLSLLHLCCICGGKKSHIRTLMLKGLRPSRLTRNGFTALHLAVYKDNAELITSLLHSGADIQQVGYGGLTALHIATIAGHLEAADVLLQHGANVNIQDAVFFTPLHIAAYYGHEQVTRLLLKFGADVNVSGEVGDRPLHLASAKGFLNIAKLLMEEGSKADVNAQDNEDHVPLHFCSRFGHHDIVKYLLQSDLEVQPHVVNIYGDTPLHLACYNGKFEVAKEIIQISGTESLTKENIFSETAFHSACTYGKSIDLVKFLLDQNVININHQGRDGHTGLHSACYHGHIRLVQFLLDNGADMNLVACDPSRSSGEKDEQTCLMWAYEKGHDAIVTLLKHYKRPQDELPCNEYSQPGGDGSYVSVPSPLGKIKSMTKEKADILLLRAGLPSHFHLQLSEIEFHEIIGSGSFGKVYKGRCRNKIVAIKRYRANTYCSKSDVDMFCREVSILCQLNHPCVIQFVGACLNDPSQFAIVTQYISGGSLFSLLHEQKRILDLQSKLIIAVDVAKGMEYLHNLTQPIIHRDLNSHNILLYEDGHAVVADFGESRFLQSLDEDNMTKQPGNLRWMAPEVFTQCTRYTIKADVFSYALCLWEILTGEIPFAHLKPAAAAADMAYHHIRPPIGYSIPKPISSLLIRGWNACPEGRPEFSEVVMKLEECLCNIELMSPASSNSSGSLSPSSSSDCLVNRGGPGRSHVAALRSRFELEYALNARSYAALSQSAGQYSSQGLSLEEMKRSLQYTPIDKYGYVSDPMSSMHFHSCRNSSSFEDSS

PKAC-beta = PKAC-beta (Homo sapiens, UniProt P22694); experiment: biochemical; details: read-out: %Ctrl @ 2000nM
TESK1 = TESK1 (Homo sapiens, UniProt Q15569); experiment: biochemical; details: read-out: %Ctrl @ 2000nM
PIK3CA(C420R) = PIK3CA(C420R) (Homo sapiens, UniProt P42336, C420R); experiment: biochemical; details: read-out: %Ctrl @ 2000nM
BRSK1 = BRSK1 (Homo sapiens, UniProt Q8TDC3); experiment: biochemical; details: read-out: %Ctrl @ 2000nM
GSK3A = GSK3A (Homo sapiens, UniProt P49840); experiment: biochemical; details: read-out: %Ctrl @ 2000nM
GSK3A, sequence (P49840 whole entry): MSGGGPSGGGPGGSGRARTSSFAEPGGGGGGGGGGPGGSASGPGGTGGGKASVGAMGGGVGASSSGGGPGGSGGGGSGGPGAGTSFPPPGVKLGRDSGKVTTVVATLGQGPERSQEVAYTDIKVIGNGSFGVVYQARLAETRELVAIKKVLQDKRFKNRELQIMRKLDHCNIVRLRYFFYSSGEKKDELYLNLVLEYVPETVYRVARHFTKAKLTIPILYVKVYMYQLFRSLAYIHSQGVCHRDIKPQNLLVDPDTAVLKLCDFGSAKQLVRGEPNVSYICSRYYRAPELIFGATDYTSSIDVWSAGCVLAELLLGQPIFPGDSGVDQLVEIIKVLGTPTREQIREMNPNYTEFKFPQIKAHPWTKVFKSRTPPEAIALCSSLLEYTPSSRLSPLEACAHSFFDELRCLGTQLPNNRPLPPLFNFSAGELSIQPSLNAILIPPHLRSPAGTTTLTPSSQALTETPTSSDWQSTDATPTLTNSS

MYLK4 = MYLK4 (Homo sapiens, UniProt Q86YV6); experiment: biochemical; details: read-out: %Ctrl @ 2000nM
PRKCD = PRKCD (Homo sapiens, UniProt Q05655); experiment: biochemical; details: read-out: %Ctrl @ 2000nM
YES = YES (Homo sapiens, UniProt P07947); experiment: biochemical; details: read-out: %Ctrl @ 2000nM
YES, sequence (P07947 whole entry): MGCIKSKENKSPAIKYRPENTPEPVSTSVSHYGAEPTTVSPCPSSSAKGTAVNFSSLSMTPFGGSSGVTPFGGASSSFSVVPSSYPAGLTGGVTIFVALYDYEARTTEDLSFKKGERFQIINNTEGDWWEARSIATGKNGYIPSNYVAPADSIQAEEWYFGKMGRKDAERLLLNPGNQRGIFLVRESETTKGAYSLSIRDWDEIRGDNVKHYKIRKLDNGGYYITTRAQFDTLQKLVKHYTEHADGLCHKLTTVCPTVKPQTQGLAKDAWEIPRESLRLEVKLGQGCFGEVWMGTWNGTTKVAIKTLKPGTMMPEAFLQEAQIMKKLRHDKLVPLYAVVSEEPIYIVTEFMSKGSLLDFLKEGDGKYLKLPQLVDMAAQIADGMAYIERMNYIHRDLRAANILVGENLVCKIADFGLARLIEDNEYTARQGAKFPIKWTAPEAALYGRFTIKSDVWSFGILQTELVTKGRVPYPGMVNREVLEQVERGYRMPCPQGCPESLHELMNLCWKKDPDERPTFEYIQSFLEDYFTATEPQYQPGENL

ERK3 = ERK3 (Homo sapiens, UniProt Q16659); experiment: biochemical; details: read-out: %Ctrl @ 2000nM
CDK9 = CDK9 (Homo sapiens, UniProt P50750); experiment: biochemical; details: read-out: %Ctrl @ 2000nM
MAP3K1 = MAP3K1 (Homo sapiens, UniProt Q13233); experiment: biochemical; details: read-out: %Ctrl @ 2000nM
SRPK2 = SRPK2 (Homo sapiens, UniProt P78362); experiment: biochemical; details: read-out: %Ctrl @ 2000nM
SRPK2, sequence (P78362 whole entry): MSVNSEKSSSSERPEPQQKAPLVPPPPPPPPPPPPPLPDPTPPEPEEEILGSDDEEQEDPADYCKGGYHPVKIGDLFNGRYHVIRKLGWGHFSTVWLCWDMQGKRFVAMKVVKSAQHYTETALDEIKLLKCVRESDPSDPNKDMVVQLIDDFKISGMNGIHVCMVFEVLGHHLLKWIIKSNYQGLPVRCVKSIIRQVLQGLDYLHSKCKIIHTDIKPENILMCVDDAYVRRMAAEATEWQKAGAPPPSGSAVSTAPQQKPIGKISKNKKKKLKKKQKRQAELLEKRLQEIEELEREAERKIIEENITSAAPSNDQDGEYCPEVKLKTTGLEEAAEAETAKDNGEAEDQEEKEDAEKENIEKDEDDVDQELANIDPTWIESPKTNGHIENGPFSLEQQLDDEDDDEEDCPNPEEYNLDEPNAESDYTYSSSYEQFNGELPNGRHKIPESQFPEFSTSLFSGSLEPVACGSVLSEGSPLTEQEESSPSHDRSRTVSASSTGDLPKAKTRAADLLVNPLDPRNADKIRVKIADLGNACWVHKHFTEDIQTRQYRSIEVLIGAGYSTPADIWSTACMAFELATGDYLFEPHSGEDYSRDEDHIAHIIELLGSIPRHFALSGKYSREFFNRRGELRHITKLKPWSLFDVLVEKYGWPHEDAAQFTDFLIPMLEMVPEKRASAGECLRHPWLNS

ERK2 = ERK2 (Homo sapiens, UniProt P28482); experiment: biochemical; details: read-out: %Ctrl @ 2000nM
EGFR(E746-A750del) = EGFR(E746-A750del) (Homo sapiens, UniProt P00533, DEL746-750); experiment: biochemical; details: read-out: %Ctrl @ 2000nM
DYRK1A = DYRK1A (Homo sapiens, UniProt Q13627); experiment: biochemical; details: read-out: %Ctrl @ 2000nM
AKT3 = AKT3 (Homo sapiens, UniProt Q9Y243); experiment: biochemical; details: read-out: %Ctrl @ 2000nM
PRKD3 = PRKD3 (Homo sapiens, UniProt O94806); experiment: biochemical; details: read-out: %Ctrl @ 2000nM
[2] = target: JAK1(JH2domain-pseudokinase) (Homo sapiens, UniProt P23458); experiment: biochemical; details: read-out: %Ctrl @ 2000nM

S6K1, sequence (P23443 whole entry): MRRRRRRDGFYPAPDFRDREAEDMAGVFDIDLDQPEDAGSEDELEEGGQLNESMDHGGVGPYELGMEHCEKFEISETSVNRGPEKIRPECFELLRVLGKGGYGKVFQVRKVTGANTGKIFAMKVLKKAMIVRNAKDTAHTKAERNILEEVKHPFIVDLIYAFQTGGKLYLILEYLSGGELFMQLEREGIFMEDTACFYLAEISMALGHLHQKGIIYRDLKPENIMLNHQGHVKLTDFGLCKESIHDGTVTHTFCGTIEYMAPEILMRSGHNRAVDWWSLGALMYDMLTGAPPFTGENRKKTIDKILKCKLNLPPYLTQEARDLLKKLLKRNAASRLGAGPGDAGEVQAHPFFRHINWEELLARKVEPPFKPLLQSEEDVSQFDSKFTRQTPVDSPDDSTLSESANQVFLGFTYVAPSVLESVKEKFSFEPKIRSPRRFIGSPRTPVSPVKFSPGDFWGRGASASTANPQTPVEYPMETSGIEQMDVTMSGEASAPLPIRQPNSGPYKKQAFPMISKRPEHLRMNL

CC(C)COC(=O)c1[nH]c2ccc(F)cc2c1-c1cn(CC2CCN(CCNS(=O)(=O)c3ccc(CC(C)C)cc3)CC2)nn1 [AB668, isobutyl 5-fluoro-3-(1-((1-(2-((4-isobutylphenyl)sulfonamido)ethyl)piperidin-4-yl)methyl)-1H-1,2,3-triazol-4-yl)-1H-indole-2-carboxylate]
remaining activity at 2 µM (CSNK1G1): 90% | remaining activity at 2 µM (ABL2): 94% | remaining activity at 2 µM (S6K1): 89% | remaining activity at 2 µM (MAK): 96% | remaining activity at 2 µM (SGK2): 98% | remaining activity at 2 µM (PRKCH): 92% | remaining activity at 2 µM (AURKA): 100% | remaining activity at 2 µM (HIPK2): 100% | remaining activity at 2 µM (RET(V804L)): 93% | remaining activity at 2 µM (ALK(L1196M)): 85% | remaining activity at 2 µM [1]: 85% | remaining activity at 2 µM (YANK3): 92% | remaining activity at 2 µM (TNIK): 88% | remaining activity at 2 µM (CSNK1G3): 67% | remaining activity at 2 µM (CDK11): 76% | remaining activity at 2 µM (PDGFRA): 86% | remaining activity at 2 µM (LIMK2): 84% | remaining activity at 2 µM (BMPR1A): 77% | remaining activity at 2 µM (TNNI3K): 96% | remaining activity at 2 µM (PKAC-beta): 78% | remaining activity at 2 µM (TESK1): 95% | remaining activity at 2 µM (PIK3CA(C420R)): 100% | remaining activity at 2 µM (BRSK1): 78% | remaining activity at 2 µM (GSK3A): 84% | NES: Asymmetric localization of PCP proteins (786-O cells): -1.441 | NES: G1/S Transition (786-O cells): -1.326 | NES: G2/M Checkpoints (786-O cells): -1.7 | NES: G2/M Transition (786-O cells): -1.306 | NES: Infection with Mycobacterium tuberculosis (786-O cells): 1.8732 | NES: Innate Immune System (786-O cells): 1.345 | NES: Keratan sulfate/keratin metabolism (786-O cells): 1.522 | NES: Mitotic G1 phase and G1/S transition (786-O cells): -1.351 | NES: Mitotic G2-G2/M phases (786-O cells): -1.306 | NES: Response of Mtb to phagocytosis (786-O cells): 1.92 | NES: TBC/RABGAPs (786-O cells): 1.83 | NES: p53-Independent G1/S DNA damage checkpoint (786-O cells): -1.606 | enrichmentScore: Asymmetric localization of PCP proteins (786-O cells): -0.3931 | enrichmentScore: G1/S Transition (786-O cells): -0.3116 | enrichmentScore: G2/M Checkpoints (786-O cells): -0.3959 | enrichmentScore: G2/M Transition (786-O cells): -0.2924 | enrichmentScore: Infection with Mycobacterium tuberculosis (786-O cells): 0.7066 | enrichmentScore: Innate Immune System (786-O cells): 0.2817 | enrichmentScore: Mitotic G2-G2/M phases (786-O cells): -0.2924 | enrichmentScore: Response of Mtb to phagocytosis (786-O cells): 0.737 | enrichmentScore: TBC/RABGAPs (786-O cells): 0.6519 | remaining activity at 2 µM (MYLK4): 100% | remaining activity at 2 µM (PRKCD): 91% | remaining activity at 2 µM (YES): 100% | remaining activity at 2 µM (ERK3): 91% | remaining activity at 2 µM (CDK9): 93% | remaining activity at 2 µM (MAP3K1): 91% | remaining activity at 2 µM (SRPK2): 98% | remaining activity at 2 µM (ERK2): 100% | remaining activity at 2 µM (EGFR(E746-A750del)): 88% | remaining activity at 2 µM (DYRK1A): 99% | remaining activity at 2 µM (AKT3): 92% | remaining activity at 2 µM (PRKD3): 100% | remaining activity at 2 µM [2]: 93%
